Laboratory results from US10822317B2, “Methods and compositions for wound healing” (QBiotics Limited, priority 2013, dated 2020).

How the values were obtained:
[1] = test system: human peripheral blood monocytes; experiment: Differentiation of monocytes into macrophages; format: cell-based; conditions: 10-fold dilutions; 4 days; adherence and morphology
Protocol: To determine potential effects of Compound 1 and fifteen other epoxy-tigliane compounds in the array on monocyte differentiation, human peripheral blood mononuclear cells (PBMCs) were isolated by Ficoll-Paque sedimentation of heparinised blood from a human donor, and plated at 100,000 cells/well in RPMI-1640 10% FCS. Duplicate wells were treated with 10-fold dilutions of the compounds and incubated at 37° C. for 4 days. The wells were scored visually for cell attachment and morphology, then washed twice with PBS, stained with sulfurhodamine and the incorporate stain quantitated in an ELISA reader. The plates were then washed with water and stained with 1% crystal violet in methanol for photography and scoring of adherent cell morphology.

[2] = test system: human neonatal fibroblasts; experiment: Scratch closure, human neonatal fibroblasts, Method 3 (IncuCyte); format: cell-based; conditions: 200 ng/mL
Protocol: The ability of early. passage neonatal foreskin fibroblasts (NFF) cultured in RPMI 1640-10% foetal calf serum to migrate across a scratch wound made in a confluent monolayer following treatment with purified compounds or plant extracts was determined using one or more of the following three methods.
Cells were seeded and treated in 96-well plates as in Method 2 (5 replicate wells per dilution), except that the scratches were made in one action with a tool having 96, 1 mm thick teflon coated pins (Essen Bioscience Woundmaker). The plate was then placed in a 37° C., 5% CO2 humidified atmosphere in an IncuCyte FLR instrument programmed to photograph each well under phase contrast at 3 hr intervals for 42 hours. The software determined the initial scratch boundaries and their rate of closure. Accelerated wound closure was considered to be significant if the initial rate of closure was >10% of the untreated controls.

Row | Molecule | Differentiation endpoint (endpoint concentration in dilution series for induction of macrophage phenotype) [1] | % closure compared to control [2]
1 | 12,13-di-heptanoyl-6,7-epoxy-4,5,9,12,13,20-hexahydroxy-1-tigliaen-3-one [Compound 49] | 1 ng/mL | 
2 | 12,13-di-nonoyl-6,7-epoxy-4,5,9,12,13,20-hexahydroxy-1-tigliaen-3-one [Compound 41] | 0.1 ng/mL | 
3 | 12-(3-butenoyl)-13-nonanoyl-6,7-epoxy-4,5,9,12,13,20-hexahydroxy-1-tigliaen-3-one [Compound 22] | 100 ng/mL | 400%
4 | 12-benzoyl-13-(2-methylbutanoyl)-6,7-epoxy-4,5,9,12,13,20-hexahydroxy-1-tigliaen-3-one [Compound 23] | 1 ng/mL | 130%
5 | 12-benzoyl-13-butanoyl-6,7-epoxy-4,5,9,12,13,20-hexahydroxy-1-tigliaen-3-one [Compound 28] |  | 140%
6 | 12-myristoyl-13-(2-methylbutanoyl)-6,7-epoxy-4,5,9,12,13,20-hexahydroxy-1-tigliaen-3-one [Compound 51] | 1 ng/mL | 
7 | 12-myristoyl-13-acetyl-6,7-epoxy-4,5,9,12,13,20-hexahydroxy-1-tigliaen-3-one [Compound 50] | 1 ng/mL | 
8 | 12-tigloyl-13-butanoyl-6,7-epoxy-4,5,9,12,13,20-hexahydroxy-1-tigliaen-3-one [Compound 21] | 10 ng/mL | 200%
9 | CCCCCC=CC=CC=CC(=O)OC1C(C)C2(O)C(C3OC3(CO)C(O)C3(O)C(=O)C(C)=CC32)C2C(C)(C)C12OC(=O)C(C)CC (stereo not drawn) [Compound 3, 12-[(2E,4E,6E)-dodeca-2,4,6-trienoyl]-13-(2-methylbutanoyl)-6,7-epoxy-4,5,9,12,13,20-hexahydroxy-1-tigliaen-3-one] | 10 ng/mL | 270%
10 | CCCCCC(O)C(O)/C=C/C=C/C(=O)OC1C(C)C2(O)C(C3OC3(CO)C(O)C3(O)C(=O)C(C)=CC32)C2C(C)(C)C12OC(=O)C(C)CC (stereo not drawn) [Compound 11, 12-[(2E,4E)-6,7-dihydroxydodeca-2,4-dienoyl]-13-(2-methylbutanoyl)-6,7-epoxy-4,5,9,12,13,20-hexahydroxy-1-tigliaen-3-one] |  | 270%
11 | CCCCCC=CC=CC(=O)OC1C(C)C2(O)C(C3OC3(CO)C(O)C3(O)C(=O)C(C)=CC32)C2C(C)(C)C12OC(=O)C(C)CC (stereo not drawn) [Compound 18, 12-[(2Z,4E)-deca-2,4-dienoyl]-13-(2-methylbutanoyl)-6,7-epoxy-4,5,9,12,13,20-hexahydroxy-1-tigliaen-3-one] |  | 220%
12 | CCCCCC=CC=CC(=O)OC1C(C)C2(O)C(C3OC3(CO)C(O)C3(O)C(=O)C(C)=CC32)C2C(C)(C)C12OC(=O)C(C)CC (stereo not drawn) [Compound 24, 12-[(2E,4E)-deca-2,4-dienoyl]-13-(2-methylbutanoyl)-6,7-epoxy-4,5,9,12,13,20-hexahydroxy-1-tigliaen-3-one] | 1 ng/mL | 
13 | CCC(C)C(=O)OC1C(C)C2(O)C(C3OC3(CO)C(O)C3(O)C(=O)C(C)=CC32)C2C(C)(C)C12OC(C)=O (stereo not drawn) [Compound 52, 12-(2-methylbutanoyl)-13-acetyl-6,7-epoxy-4,5,9,12,13,20-hexahydroxy-1-tigliaen-3-one] | 10 ng/mL | 
14 | CCCCCC(=O)OC12C(O)C(C)C3(O)C(C4OC4(CO)C(O)C4(O)C(=O)C(C)=CC43)C1C2(C)C (stereo not drawn) [Compound 53, 13-hexanoyl-6,7-epoxy-4,5,9,12,13,20-hexahydroxy-1-tigliaen-3-one] | 100 ng/mL | 
